Test results from ChEMBL document CHEMBL1147598, “1-(2-Naphthyl)-1H-pyrazole-5-carboxylamides as potent factor Xa inhibitors. Part 3: Design, synthesis and SAR of orally bioavailable benzamidine-P4 inhibitors” (Bioorg Med Chem Lett, 2004).

Key:
Coagulation factor X [1] = biological target: T1, Coagulation factor X (Homo sapiens, UniProt P00742); experiment: In vitro inhibitory activity against human coagulation factor X
Coagulation factor X [2] = biological target: T1, Coagulation factor X; experiment: Binding affinity for human Coagulation factor X
[3] = In vitro anticoagulant potency measured in human plasma by thrombin generation (TG) assay expressed as 2 x TG; assay type: functional
[4] = Bioavailability in rat; assay type: ADME, organism-based; details: in vivo
Rattus norvegicus [5] = organism: Rattus norvegicus; experiment: (§1) Volume of distribution in rat; assay type: ADME, organism-based; details: in vivo
Rattus norvegicus [6] = organism: Rattus norvegicus; experiment: (§2) Half-life determined in rat; assay type: ADME, organism-based; details: in vivo
Kallikrein-1 = Kallikrein-1 (Homo sapiens, UniProt P06870); experiment: Inhibitory activity of compound against kallikrein
[7] = biological target: Tissue-type plasminogen activator (Homo sapiens, UniProt P00750); experiment: Inhibitory activity of compound against tissue type plasminogen activator
[8] = biological target: Plasminogen (Homo sapiens) (UniProt P00747); experiment: Inhibitory activity of compound against plasmin
Prothrombin = Prothrombin (Homo sapiens, UniProt P00734); experiment: Inhibitory activity of compound against thrombin
Rattus norvegicus [9] = organism: Rattus norvegicus; experiment: (§3) Clearance rate in rat; assay type: ADME, organism-based; details: in vivo
Serine protease 1 = Serine protease 1 (Homo sapiens, UniProt P07477); experiment: Inhibitory activity of compound against trypsin
[10] = biological target: Vitamin K-dependent protein C (Homo sapiens, UniProt P04070); experiment: Inhibitory activity against activated protein C was determined
Oryctolagus cuniculus [11] = experiment: In vivo inhibition of thrombus accretion at a plasma level of 4.5 […] in the rabbit deep vein thrombosis (DVT) model; assay type: functional
[12] = as §1; assay type: ADME, organism-based; details: in vivo
[13] = as §2; assay type: ADME, organism-based; details: in vivo
Oryctolagus cuniculus [14] = experiment: In vivo inhibition of thrombus accretion at a plasma level of 3.7 […] in the rabbit deep vein thrombosis (DVT) model; assay type: functional
[15] = as §3; assay type: ADME, organism-based; details: in vivo
Oryctolagus cuniculus [16] = experiment: In vivo inhibition of thrombus accretion at a plasma level of 4.6 […] in the rabbit deep vein thrombosis (DVT) model; assay type: functional
Oryctolagus cuniculus [17] = experiment: In vivo inhibition of thrombus accretion at a plasma level of 3.9 […] in the rabbit deep vein thrombosis (DVT) model; assay type: functional

Chain of Plasminogen (Homo sapiens) (P00747 whole entry, looked up): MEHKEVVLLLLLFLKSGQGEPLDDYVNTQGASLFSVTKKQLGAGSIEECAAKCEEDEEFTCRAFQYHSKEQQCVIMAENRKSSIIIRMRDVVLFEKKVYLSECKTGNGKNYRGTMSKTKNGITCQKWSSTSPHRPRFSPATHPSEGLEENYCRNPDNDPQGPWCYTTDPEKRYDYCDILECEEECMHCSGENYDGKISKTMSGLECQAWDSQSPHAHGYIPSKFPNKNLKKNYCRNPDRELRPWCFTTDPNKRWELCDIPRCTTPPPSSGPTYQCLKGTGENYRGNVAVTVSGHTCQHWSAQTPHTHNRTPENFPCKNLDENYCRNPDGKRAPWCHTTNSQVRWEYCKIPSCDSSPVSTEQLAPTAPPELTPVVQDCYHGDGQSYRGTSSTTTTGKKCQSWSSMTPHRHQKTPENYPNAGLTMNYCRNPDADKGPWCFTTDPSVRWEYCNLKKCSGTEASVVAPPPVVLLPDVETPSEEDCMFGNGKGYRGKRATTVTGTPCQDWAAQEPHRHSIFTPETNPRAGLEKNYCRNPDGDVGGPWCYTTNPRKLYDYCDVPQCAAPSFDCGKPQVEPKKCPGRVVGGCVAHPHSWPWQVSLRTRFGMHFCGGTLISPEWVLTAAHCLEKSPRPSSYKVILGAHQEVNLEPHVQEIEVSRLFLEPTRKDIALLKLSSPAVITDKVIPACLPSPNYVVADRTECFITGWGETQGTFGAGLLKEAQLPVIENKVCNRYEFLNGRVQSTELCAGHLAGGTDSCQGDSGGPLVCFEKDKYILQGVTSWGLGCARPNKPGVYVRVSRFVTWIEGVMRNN
Chain of Kallikrein-1 (P06870 whole entry): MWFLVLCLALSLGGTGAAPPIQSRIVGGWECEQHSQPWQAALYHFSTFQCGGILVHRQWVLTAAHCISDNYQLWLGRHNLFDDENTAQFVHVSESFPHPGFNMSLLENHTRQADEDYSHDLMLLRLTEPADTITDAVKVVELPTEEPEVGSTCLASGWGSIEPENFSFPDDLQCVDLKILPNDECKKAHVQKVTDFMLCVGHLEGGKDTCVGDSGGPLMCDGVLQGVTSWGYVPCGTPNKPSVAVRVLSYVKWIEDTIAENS
Chain of Serine protease 1 (P07477 whole entry): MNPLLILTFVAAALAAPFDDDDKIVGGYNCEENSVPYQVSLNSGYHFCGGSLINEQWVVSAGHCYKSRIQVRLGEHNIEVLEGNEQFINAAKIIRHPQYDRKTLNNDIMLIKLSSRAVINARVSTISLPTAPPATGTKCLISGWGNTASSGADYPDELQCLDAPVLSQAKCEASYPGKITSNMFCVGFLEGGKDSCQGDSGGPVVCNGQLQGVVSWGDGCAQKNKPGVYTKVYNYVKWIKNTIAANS
T1 sequence (P00742 41-179 limits assumed): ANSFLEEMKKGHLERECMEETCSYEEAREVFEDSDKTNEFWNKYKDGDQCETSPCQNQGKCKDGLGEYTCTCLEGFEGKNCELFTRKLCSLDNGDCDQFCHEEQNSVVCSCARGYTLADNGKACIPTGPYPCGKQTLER
T1 sequence (P00742 235-488 limits assumed): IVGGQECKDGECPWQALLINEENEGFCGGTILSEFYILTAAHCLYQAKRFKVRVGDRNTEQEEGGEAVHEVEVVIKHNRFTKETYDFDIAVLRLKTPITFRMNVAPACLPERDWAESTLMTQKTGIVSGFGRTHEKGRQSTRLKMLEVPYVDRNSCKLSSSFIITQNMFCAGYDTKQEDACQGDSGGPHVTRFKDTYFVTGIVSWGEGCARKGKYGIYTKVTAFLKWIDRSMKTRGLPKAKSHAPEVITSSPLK
Chain of Vitamin K-dependent protein C (P04070 43-197 limits assumed): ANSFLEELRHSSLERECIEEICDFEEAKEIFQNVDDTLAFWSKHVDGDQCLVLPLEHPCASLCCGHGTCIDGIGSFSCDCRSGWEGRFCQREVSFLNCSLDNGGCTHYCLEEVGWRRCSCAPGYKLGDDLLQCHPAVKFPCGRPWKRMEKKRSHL
Chain of Vitamin K-dependent protein C (P04070 212-461 limits assumed): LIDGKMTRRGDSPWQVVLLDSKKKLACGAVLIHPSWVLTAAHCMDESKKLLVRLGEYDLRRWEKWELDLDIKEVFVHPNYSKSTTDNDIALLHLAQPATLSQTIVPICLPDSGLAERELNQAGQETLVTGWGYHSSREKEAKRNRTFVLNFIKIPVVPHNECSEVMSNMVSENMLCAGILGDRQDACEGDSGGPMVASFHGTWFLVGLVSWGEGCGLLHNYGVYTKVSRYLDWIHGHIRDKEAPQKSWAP
Chain of Tissue-type plasminogen activator (P00750 whole entry): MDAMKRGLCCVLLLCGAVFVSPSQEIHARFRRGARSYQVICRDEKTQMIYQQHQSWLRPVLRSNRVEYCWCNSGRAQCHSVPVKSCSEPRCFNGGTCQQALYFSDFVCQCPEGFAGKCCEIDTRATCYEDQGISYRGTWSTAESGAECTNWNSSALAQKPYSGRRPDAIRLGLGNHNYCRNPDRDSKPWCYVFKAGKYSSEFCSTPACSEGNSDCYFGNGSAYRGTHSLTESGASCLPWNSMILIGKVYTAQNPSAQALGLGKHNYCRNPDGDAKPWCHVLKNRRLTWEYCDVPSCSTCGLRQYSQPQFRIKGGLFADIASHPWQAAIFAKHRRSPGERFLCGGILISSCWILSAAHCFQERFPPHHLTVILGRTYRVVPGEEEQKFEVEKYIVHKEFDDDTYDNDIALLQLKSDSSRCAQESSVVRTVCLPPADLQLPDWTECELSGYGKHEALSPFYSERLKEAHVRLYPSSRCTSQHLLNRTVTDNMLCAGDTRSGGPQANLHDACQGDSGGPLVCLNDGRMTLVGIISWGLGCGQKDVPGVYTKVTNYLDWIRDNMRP

Structure (SMILES)	IC50 (Coagulation factor X [1]) [µM]	Activity [3] [µM]	also measured
Cc1cc(C(=O)Nc2ccc(C(=N)N3CCCCC3)cc2F)n(-c2cc3ccccc3cc2F)n1	0.008	1.5	Ki (Coagulation factor X [2]): 0.0052 µM
N=C(c1ccc(NC(=O)c2nnnn2-c2ccc3cc(Cl)ccc3c2)c(F)c1)N1CCCCC1	0.008	–	–
CCCN(C)C(=N)c1ccc(NC(=O)c2cc(C)nn2-c2cc3ccccc3cc2F)c(F)c1	0.034	–	–
Cc1cc(C(=O)Nc2cc(C(=N)N(C)C)cs2)n(-c2cc3ccccc3cc2F)n1	0.377	–	–
Cc1cc(C(=O)Nc2ccc(C3=NCCN3C)cc2F)n(-c2ccc3cc(Cl)ccc3c2)n1	0.008	0.91	Ki (Coagulation factor X [2]): 0.001 µM
CCN(C)C(=N)c1ccc(NC(=O)c2cc(C)nn2-c2cc3ccccc3cc2F)c(F)c1	0.022	–	–
N=C(c1ccc(NC(=O)c2nnnn2-c2cc3ccccc3cc2F)c(F)c1)N1CCCC1	0.024	–	–
N=C(c1ccc(NC(=O)c2cc(C(F)(F)F)nn2-c2cc3ccccc3cc2F)c(F)c1)N1CCCC1	0.01	–	–
Cc1cc(C(=O)Nc2ccc(C(=N)N(C)C)s2)n(-c2cc3ccccc3cc2F)n1	0.511	–	–
N=C(c1ccc(NC(=O)c2cc(C(F)(F)F)nn2-c2cc3ccccc3cc2F)c(F)c1)N1CCCCC1	0.011	–	–
Cc1cc(C(=O)Nc2ccc(C(=N)N3CCCCC3)cc2F)n(-c2ccc3cc(Cl)ccc3c2)n1	0.007	–	–
COCCN(C)C(=N)c1ccc(NC(=O)c2cc(C)nn2-c2cc3ccccc3cc2F)c(F)c1	0.11	–	–
Cc1cc(C(=O)Nc2ccc(C(=N)N(C)C)cc2F)n(-c2cc3ccccc3cc2F)n1	–	1	bioavailability [4]: 24.3%; Vd (Rattus norvegicus [5]): 49.4 L/kg; T1/2 (Rattus norvegicus [6]): 3.1 h; IC50 (Kallikrein-1): > 10 µM; Ki (Coagulation factor X [2]): 0.0039 µM; IC50 [7]: > 10 µM; IC50 [8]: > 10 µM; IC50 (Prothrombin): > 10 µM; CL (Rattus norvegicus [9]): 54.3 mL/min/kg; IC50 (Serine protease 1): > 10 µM; IC50 [10]: > 10 µM
N=C(c1ccc(NC(=O)c2nnnn2-c2ccc3cc(Cl)ccc3c2)c(F)c1)N1CCCC1	0.007	–	–
CN(C)C(=N)c1ccc(NC(=O)c2cc(C(F)(F)F)nn2-c2ccc3cc(Cl)ccc3c2)c(F)c1	0.001	1.8	Ki (Coagulation factor X [2]): 0.0009 µM
Cc1cc(C(=O)Nc2ccc(C(=N)N3CCOCC3)cc2F)n(-c2cc3ccccc3cc2F)n1	0.134	–	–
CN1CCN=C1c1ccc(NC(=O)c2nnnn2-c2ccc3cc(Cl)ccc3c2)c(F)c1	0.015	–	–
Cc1cc(C(=O)Nc2ccc(C(=N)N3CCCC3)cc2F)n(-c2cc3ccccc3cc2S(C)(=O)=O)n1	0.015	–	–
Cc1cc(C(=O)Nc2ccc(C(=N)N(C)C)cc2F)n(-c2ccc3cc(Cl)ccc3c2)n1	0.005	0.83	bioavailability [4]: 13.8%; Inhibition (Oryctolagus cuniculus [11]): 56%; Vd [12]: 82.5 L/kg; half-life [13]: 18 h; IC50 (Kallikrein-1): > 10 µM; Ki (Coagulation factor X [2]): 0.0007 µM; IC50 [7]: > 10 µM; Inhibition (Oryctolagus cuniculus [14]): 20%; IC50 [8]: > 10 µM; IC50 (Prothrombin): > 10 µM; clearance [15]: 55.9 mL/min/kg; IC50 (Serine protease 1): > 10 µM; IC50 [10]: > 10 µM
Cc1cc(C(=O)Nc2ccc(C(=N)N(C)Cc3ccccc3)cc2F)n(-c2cc3ccccc3cc2F)n1	0.08	–	–

Structure (SMILES)	IC50 (Coagulation factor X [1]) [µM]	Activity [3] [µM]	also measured
CN1CCN=C1c1ccc(NC(=O)c2cc(C(F)(F)F)nn2-c2ccc3cc(Cl)ccc3c2)c(F)c1	0.002	4.5	Ki (Coagulation factor X [2]): 0.0012 µM
CN1CCN=C1c1ccc(NC(=O)c2nnnn2-c2cc3ccccc3cc2F)c(F)c1	0.11	–	–
Cc1cc(C(=O)Nc2ccc(C(=N)N3CCCC3)cc2F)n(-c2ccc3cc(Cl)ccc3c2)n1	0.007	–	–
Cc1cc(C(=O)Nc2cccc(C(=N)N(C)C)c2)n(-c2cc3ccccc3cc2F)n1	0.479	–	–
CN(C)C(=N)c1ccc(NC(=O)c2nnnn2-c2cc3ccccc3cc2F)c(F)c1	0.016	–	–
N=C(c1ccc(NC(=O)c2nnnn2-c2cc3ccccc3cc2F)c(F)c1)N1CCCCC1	0.076	–	–
Cc1cc(C(=O)Nc2ccc(C(=N)N(C)CCN(C)C)cc2F)n(-c2cc3ccccc3cc2F)n1	0.048	–	–
CNC(=N)c1ccc(NC(=O)c2cc(C)nn2-c2cc3ccccc3cc2F)c(F)c1	0.114	–	–
N=C(c1ccc(NC(=O)c2cc(C(F)(F)F)nn2-c2ccc3cc(Cl)ccc3c2)c(F)c1)N1CCCCC1	0.004	–	–
Cc1cc(C(=O)Nc2ccc(C3=NCCN3C)cc2F)n(-c2cc3ccccc3cc2F)n1	0.018	1.7	bioavailability [4]: 43.9%; Vd [12]: 7.6 L/kg; half-life [13]: 1.8 h; Ki (Coagulation factor X [2]): 0.008 µM; clearance [15]: 49.3 mL/min/kg
Cc1cc(C(=O)Nc2ccc(C(=N)N3CCCCCC3)cc2F)n(-c2cc3ccccc3cc2F)n1	0.05	–	–
N=C(c1ccc(NC(=O)c2cc(C(F)(F)F)nn2-c2ccc3cc(Cl)ccc3c2)c(F)c1)N1CCCC1	0.002	–	–
Cc1cc(C(=O)Nc2ccc(C(=N)N3CCC3)cc2F)n(-c2cc3ccccc3cc2F)n1	0.05	–	–
Cc1cc(C(=O)Nc2ccc(C(=N)N(C)C)cc2F)n(-c2cc3ccccc3cc2S(C)(=O)=O)n1	0.012	0.53	Ki (Coagulation factor X [2]): 0.0028 µM
Cc1cc(C(=O)Nc2ccc(C(=N)N3CCCCC3)cc2F)n(-c2cc3ccccc3cc2S(C)(=O)=O)n1	0.028	–	–
CN(C)C(=N)c1ccc(NC(=O)c2nnnn2-c2ccc3cc(Cl)ccc3c2)c(F)c1	0.002	2.5	Ki (Coagulation factor X [2]): 0.0007 µM
CN(C)C(=N)c1ccc(NC(=O)c2cc(C(F)(F)F)nn2-c2cc3ccccc3cc2F)c(F)c1	–	1.4	Inhibition (Oryctolagus cuniculus [16]): 51%; bioavailability [4]: 46.9%; Vd [12]: 11 L/kg; half-life [13]: 8.8 h; Inhibition (Oryctolagus cuniculus [17]): 20%; IC50 (Kallikrein-1): > 10 µM; IC50 [7]: > 10 µM; IC50 [8]: > 10 µM; IC50 (Prothrombin): > 10 µM; clearance [15]: 14.7 mL/min/kg; IC50 (Serine protease 1): > 10 µM; IC50 [10]: > 10 µM
Cc1cc(C(=O)Nc2ccc(C3=NCCN3C)cc2F)n(-c2cc3ccccc3cc2S(C)(=O)=O)n1	0.014	0.78	Ki (Coagulation factor X [2]): 0.0039 µM
Cc1cc(C(=O)Nc2ccc(C(=N)N)cc2F)n(-c2cc3ccccc3cc2F)n1	0.777	–	–
Cc1cc(C(=O)Nc2ccc(C(=N)N3CCCC3)cc2F)n(-c2cc3ccccc3cc2F)n1	0.006	1.4	Ki (Coagulation factor X [2]): 0.0041 µM
